Measured values: US11485713B2, “Androgen receptor modulators and methods for their use” (ESSA Pharma, Inc., priority 2018, dated 2022)
Where a name gives a salt, the structure may show the parent alone.

Key:
LNCaP ARE-Luc = experiment: Luciferase assay in LNCaP cell lysates (LNCaP ARE-Luc); assay type: cell-based; conditions: Homo sapiens, Firefly Luciferase Assay System, read-out: LNCaP ARE-Luc % inhibition IC50 Ranges
Method: Lysates were thawed on ice then collected into V-bottom 96-well tissue culture plates. Lysates were centrifuged at 4° C. for 5 minutes at 4000 rpm. To measure luminescence of LNCaP cell lysates the Firefly Luciferase Assay System (Promega) was employed, according to manufacturer's protocol. Relative luminescence units (RLU) in cell lysates were detected for 10 seconds using Promega GoMax-Multi Detection Luminometer (Promega).
Statistical analyses were performed using GraphPad Prism (Version 6.01 for Windows; La Jolla, Calif., USA). Comparisons between treatment and control groups were compared using Two-Way ANOVA with post-hoc Dunnett's and Tukey's tests. Differences were considered statistically significant at P values less than 0.05. Densitometric quantification of relative AR levels was determined by Image.

[1] = Microsomal stability assay, MLM; assay type: in vitro ADME; conditions: mouse, pH 7.4, 1 μM test compound, 0.5 mg/mL liver microsomes protein, 37° C., 0-60 min, read-out: MLM +/− NADPH: Clint (μL/min/mg protein)
Description: (§1) Microsomal Stability Assay: Microsomal stability assay is a widely used in vitro model to characterize the metabolic conversion by phase I enzymes, such as cytochrome P450 (CYP) enzymes. Since metabolism is known to be highly variable in different species, microsomal stability assay is commonly run in multiple species. Metabolic stability of testing compound can be evaluated using human, rat, mouse, or other animal liver or intestine microsomes to predict intrinsic clearance.
(§2) The assay was carried out in 96-well microtiter plates at 37° C. Reaction mixtures (25 μL) contained a final concentration of 1 μM test compound, 0.5 mg/mL liver microsomes protein, and 1 mM NADPH and/or 1 mM UDPGA (with alamethicin) in 100 mM potassium phosphate, pH 7.4 buffer with 3 mM MgCl2. The incubation was done with N=1, but duplicate incubation at each time point can be prepared if necessary. At each of the time points (for example, 0, 15, 30, and 60 minutes), 150 μL of quench solution (100% acetonitrile with 0.1% formic acid) with internal standard was transferred to each well. Besides the zero minute controls, mixtures containing the same components except the NADPH can also be prepared as the negative control. Verapamil was included as a positive control to verify assay performance. Plates were sealed, vortexed, and centrifuged at 4° C. for 15 minutes at 4000 rpm. The supernatant is transferred to fresh plates for LC/MS/MS analysis.
(§3) Summarized conditions: [Compound]=1 μM, [LM]=0.5 mg/mL, [NADPH]=1 mM and/or [UDPGA]=1 mM, Buffer=100 mM Potassium Phosphate, pH 7.4 with 3 mM MgCl2, Time=0, 15, 30, and 60 min, and Temperature=37° C.
(§4) All samples were analyzed on LC/MS/MS using an AB Sciex API 4000 instrument, coupled to a Shimadzu LC-20AD LC Pump system. Analytical samples were separated using a Waters Atlantis T3 dC18 reverse phase HPLC column (20 mm×2.1 mm) at a flow rate of 0.5 mL/min. The mobile phase consisted of 0.1% formic acid in water (solvent A) and 0.1% formic acid in 100% acetonitrile (solvent B).
(§5) The extent of metabolism is calculated as the disappearance of the test compound, compared to the 0-min time incubation. Initial rates are calculated for the compound concentration and used to determine half-life (t½) values and subsequently, the intrinsic clearance (Clint). Clint=(0.693)(1/t½ (min))(g of liver/kg of body weight)(mL incubation/mg of microsomal protein)(45 mg of microsomal protein/g of liver weight)

[2] = Microsomal stability assay, HLM; assay type: in vitro ADME; conditions: human, pH 7.4, 1 μM test compound, 0.5 mg/mL liver microsomes protein, 37° C., 0-60 min, read-out: HLM +/− NADPH: Clint (μL/min/mg protein)
Description: as §1, §2, §3, §4, §5

SMILES | IC50 (LNCaP ARE-Luc) [nM] | microsomal CLint at 1 μM [1] [µL/min/mg] | microsomal CLint at 1 μM [2] [µL/min/mg]
CC(C)(c1ccc(OCC(=O)CNS(C)(=O)=O)cc1)c1ccc(OCCCCl)c(Cl)c1 [Compound A5] | < 100 | ≥ 48 | ≥ 48
CC(C)(c1ccc(NCC(=O)CNS(C)(=O)=O)cc1)c1cc(Cl)c(OCCCCl)c(Cl)c1 [Compound A27] | ≥ 250 | 12 to 48 | ≥ 48
CC(C)(c1ccc(OCC(=O)CNS(C)(=O)=O)cc1)c1cc(Cl)c(OCc2cccc(Cl)c2)c(Cl)c1 [Compound A37] | ≥ 250 | ≥ 48 | ≥ 48
CC(C)(c1ccc(OCC(=O)CNS(C)(=O)=O)cc1)c1cc(Cl)c(CCCCCl)c(Cl)c1 [Compound A34] | ≥ 250 | ≥ 48 | ≥ 48
Cc1cc(OCCCCl)ccc1C(C)(C)c1ccc(OCC(=O)CNS(C)(=O)=O)cc1 [Compound A2] | 100 to 250 | ≥ 48 | ≥ 48
CS(=O)(=O)NCC(=O)COc1ccc(-c2cc(Cl)c(OCC(O)CCl)c(Cl)c2)cc1 (stereo not shown) [Compound A25] | ≥ 250 | ≥ 48 | ≥ 48
CN(CC(=O)CNS(C)(=O)=O)c1ccc(C(C)(C)c2cc(Cl)c(OCCCl)c(Cl)c2)cc1 [Compound A81, N-(3-((4-(2-(3,5-dichloro-4-(2-chloroethoxy)phenyl)propan-2-yl)phenyl) (methyl)amino)-2-oxopropyl)methanesulfonamide hydrochloride] | ≥ 250 | 12 to 48 | 12 to 48
Cc1cc(C(C)(C)c2ccc(OCCCCl)cc2)ccc1OCC(=O)CNS(C)(=O)=O [Compound A9] | ≥ 250 | ≥ 48 | ≥ 48
CC(C)(c1ccc(OCCCCl)cc1)c1ccc(OCC(=O)CNS(C)(=O)=O)c(Cl)c1 [Compound A13] | ≥ 250 | ≥ 48 | ≥ 48
CC(C)(c1ccc(OCC(N)=O)cc1)c1cc(Cl)c(OCCCCl)c(Cl)c1 [Compound A42] | ≥ 250 | < 12 | 12 to 48
CC(C)(c1cccc(OCC(=O)CNS(C)(=O)=O)c1)c1ccc(Cl)c(OCCCCl)c1Cl [Compound A77] | < 100 | 12 to 48 | < 12
CC(C)NC(=O)COc1ccc(C(C)(C)c2cc(Cl)c(OCCCCl)c(Cl)c2)cc1 [Compound A30] | ≥ 250 | < 12 | 12 to 48
CS(=O)(=O)NCC(=O)COc1ccc(Cc2cc(Cl)c(OCCCCl)c(Cl)c2)cc1 [Compound A21] | ≥ 250 | ≥ 48 | ≥ 48
Cc1cc(C(C)(C)c2ccc(OCC(=O)CNS(C)(=O)=O)cc2)ccc1OCCCCl [Compound A1] | < 100 | ≥ 48 | ≥ 48
CS(=O)(=O)NCC(=O)COc1ccccc1Cc1cc(Cl)c(OCCCCl)c(Cl)c1 [Compound A49] | ≥ 250 | ≥ 48 | ≥ 48
CC(C)(NS(C)(=O)=O)C(=O)COc1ccc(C(C)(C)c2cc(Cl)c(OCCCCl)c(Cl)c2)cc1 [Compound A64] | ≥ 250 |  | < 12

SMILES | IC50 (LNCaP ARE-Luc) [nM] | microsomal CLint at 1 μM [1] [µL/min/mg] | microsomal CLint at 1 μM [2] [µL/min/mg]
CC(O)(CCl)COc1c(Cl)cc(C(C)(C)c2ccc(OCC(=O)CNS(C)(=O)=O)cc2)cc1Cl (stereo not shown) [Compound A52, N-(3-(4-(2-(3,5-dichloro-4-(3-chloro-2-hydroxy-2-methylpropoxy)phenyl)propan-2-yl)phenoxy)-2-oxopropyl)methanesulfonamide] | < 100 |  | ≥ 48
CC(=O)N(c1ccc(OCC(=O)CNS(C)(=O)=O)cc1)c1cc(Cl)c(OCCCCl)c(Cl)c1 [Compound A71, N-(3,5-dichloro-4-(3-chloropropoxy)phenyl)-N-(4-(3-(methylsulfonamido)-2-oxopropoxy)phenyl)acetamide] | ≥ 250 |  | ≥ 48
CN(CC(=O)COc1ccc(C(C)(C)c2cc(Cl)c(OCCCCl)c(Cl)c2)cc1)S(C)(=O)=O [Compound A69] | ≥ 250 |  | ≥ 48
CS(=O)(=O)NCC(=O)COc1cccc(Cc2ccc(Cl)c(OCCCCl)c2Cl)c1 [Compound A24] | ≥ 250 |  | ≥ 48
COc1cc(OCC(=O)CNS(C)(=O)=O)ccc1C(C)(C)c1ccc(OCCCCl)cc1 [Compound A12] | ≥ 250 |  | ≥ 48
CN(CCCCl)c1c(Cl)cc(C(C)(C)c2ccc(OCC(=O)CNS(C)(=O)=O)cc2)cc1Cl [Compound A36] | 100 to 250 |  | ≥ 48
CC(C)(c1ccc(CNC(=O)CNS(C)(=O)=O)cc1)c1cc(Cl)c(OCCCCl)c(Cl)c1 [Compound A46, N-(4-(2-(3,5-dichloro-4-(3-chloropropoxy)phenyl)propan-2-yl)benzyl)-2-(methylsulfonamido)acetamide] | ≥ 250 |  | 12 to 48
CC(C)(Oc1ccc(C(C)(C)c2cc(Cl)c(OCCCCl)c(Cl)c2)cc1)C(=O)CNS(C)(=O)=O [Compound A63] | < 100 |  | ≥ 48
CC(C)(c1ccc(NC(=O)CCNS(C)(=O)=O)cc1)c1cc(Cl)c(OCCCCl)c(Cl)c1 [Compound A45] | ≥ 250 |  | < 12
CN(c1ccc(OCC(=O)CNS(C)(=O)=O)cc1)c1cc(Cl)c(OCCCCl)c(Cl)c1 [Compound A23] | ≥ 250 | ≥ 48 | ≥ 48
CN(CC(=O)CNS(C)(=O)=O)c1ccc(C(C)(C)c2cc(Cl)c(OCCCCl)c(Cl)c2)cc1 [Compound A28] | ≥ 250 | 12 to 48 | 12 to 48
CC(=O)C(=O)Nc1ccc(C(C)(C)c2cc(Cl)c(OCCCCl)c(Cl)c2)cc1 [Compound A85] | ≥ 250 |  | ≥ 48
COc1cc(C(C)(C)c2ccc(OCCCCl)cc2)ccc1OCC(=O)CNS(C)(=O)=O [Compound A11] | ≥ 250 |  | ≥ 48
CC(C)(c1ccc(C(=O)CCCNS(C)(=O)=O)cc1)c1cc(Cl)c(OCCCCl)c(Cl)c1 [Compound A84] | ≥ 250 |  | 12 to 48
CC(C)(c1ccc(OCC(=O)CNS(C)(=O)=O)cc1)c1cc(Cl)c(OCCCl)c(Cl)c1 [Compound A33, N-(3-(4-(2-(3,5-dichloro-4-(2-chloroethoxy)phenyl)propan-2-yl)phenoxy)-2-oxopropyl)methanesulfonamide] | < 100 |  | ≥ 48
